Experimental data: ChEMBL document CHEMBL5715956, “Selective Targeting of Bromodomains of the Bromodomain-PHD Fingers Family Impairs Osteoclast Differentiation” (ACS Chem Biol, 2017)

Assays:
[1] = target: T1, Bromodomain-containing protein 1 (Homo sapiens) (UniProt O95696); experiment: Binding affinity to BRPF2 (unknown origin) assessed as association constant at 12 uM by Isothermal titration calorimetry
T1 sequence (whole entry): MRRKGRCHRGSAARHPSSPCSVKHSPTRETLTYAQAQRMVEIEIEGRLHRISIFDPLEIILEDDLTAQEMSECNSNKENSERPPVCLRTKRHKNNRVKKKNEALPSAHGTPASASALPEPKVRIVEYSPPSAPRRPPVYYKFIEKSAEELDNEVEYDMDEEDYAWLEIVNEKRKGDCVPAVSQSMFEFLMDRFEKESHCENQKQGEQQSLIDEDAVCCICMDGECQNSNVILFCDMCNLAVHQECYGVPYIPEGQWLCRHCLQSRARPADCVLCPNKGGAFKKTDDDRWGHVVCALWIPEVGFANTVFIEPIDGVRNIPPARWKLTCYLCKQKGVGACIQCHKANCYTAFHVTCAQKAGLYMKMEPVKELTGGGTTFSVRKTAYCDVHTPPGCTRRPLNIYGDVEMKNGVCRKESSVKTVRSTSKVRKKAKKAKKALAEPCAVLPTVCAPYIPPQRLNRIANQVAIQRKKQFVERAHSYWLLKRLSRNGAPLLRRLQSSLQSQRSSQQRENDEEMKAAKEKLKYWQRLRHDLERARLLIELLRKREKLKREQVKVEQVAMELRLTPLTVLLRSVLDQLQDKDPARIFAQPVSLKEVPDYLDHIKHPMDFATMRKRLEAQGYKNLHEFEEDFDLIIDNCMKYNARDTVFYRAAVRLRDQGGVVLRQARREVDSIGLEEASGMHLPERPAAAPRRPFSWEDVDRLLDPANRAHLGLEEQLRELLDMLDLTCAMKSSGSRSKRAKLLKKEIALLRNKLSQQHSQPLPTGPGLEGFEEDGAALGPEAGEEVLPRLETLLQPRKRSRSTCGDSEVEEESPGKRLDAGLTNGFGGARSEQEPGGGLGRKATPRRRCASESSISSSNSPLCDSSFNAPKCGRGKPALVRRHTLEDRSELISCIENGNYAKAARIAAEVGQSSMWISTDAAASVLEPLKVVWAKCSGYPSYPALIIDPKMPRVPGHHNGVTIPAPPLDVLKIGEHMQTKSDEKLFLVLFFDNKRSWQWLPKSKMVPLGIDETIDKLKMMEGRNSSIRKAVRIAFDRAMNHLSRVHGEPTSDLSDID

[2] = target: Bromodomain-containing protein 4 (Homo sapiens) (UniProt O60885); experiment: Binding affinity to BRD4 BD1 (unknown origin) assessed as change in enthalpy at 14 uM by Isothermal titration calorimetry
[3] = target: T1, Bromodomain-containing protein 1 (Homo sapiens); experiment: Binding affinity to BRPF2 (unknown origin) assessed as change in entropy at 12 uM by Isothermal titration calorimetry
[4] = target: Bromodomain-containing protein 4 (Homo sapiens) (UniProt O60885); experiment: Binding affinity to BRD4 BD1 (unknown origin) assessed as change in entropy at 14 uM by Isothermal titration calorimetry
[5] = target: T1, Bromodomain-containing protein 1 (Homo sapiens); experiment: Binding affinity to BRPF2 (unknown origin) assessed as change in gibbs free energy at 12 uM by Isothermal titration calorimetry
[6] = target: Bromodomain-containing protein 4 (Homo sapiens) (UniProt O60885); experiment: Binding affinity to BRD4 BD1 (unknown origin) assessed as change in gibbs free energy at 14 uM by Isothermal titration calorimetry
[7] = target: Beta-1 adrenergic receptor (Homo sapiens) (UniProt P08588); experiment: Inhibition of Beta1 (unknown origin) at 10 uM relative to control
Sequence of Beta-1 adrenergic receptor (Homo sapiens) (P08588 whole entry, looked up): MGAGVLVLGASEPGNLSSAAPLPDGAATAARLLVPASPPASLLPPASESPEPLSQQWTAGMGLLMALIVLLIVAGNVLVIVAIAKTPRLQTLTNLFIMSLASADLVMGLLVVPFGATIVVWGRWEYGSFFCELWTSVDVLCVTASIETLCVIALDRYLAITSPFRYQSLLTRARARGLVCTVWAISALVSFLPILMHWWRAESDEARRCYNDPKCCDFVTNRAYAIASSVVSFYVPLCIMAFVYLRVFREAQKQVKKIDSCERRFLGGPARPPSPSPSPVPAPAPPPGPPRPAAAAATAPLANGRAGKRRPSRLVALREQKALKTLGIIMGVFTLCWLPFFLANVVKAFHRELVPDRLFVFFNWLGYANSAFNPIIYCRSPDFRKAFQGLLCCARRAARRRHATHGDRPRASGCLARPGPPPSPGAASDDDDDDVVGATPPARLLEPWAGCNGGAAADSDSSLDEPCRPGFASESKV

[8] = target: 5-hydroxytryptamine receptor 5A (Homo sapiens) (UniProt P47898); experiment: Inhibition of 5HT5A (unknown origin) at 10 uM relative to control
Sequence of 5-hydroxytryptamine receptor 5A (Homo sapiens) (P47898 whole entry): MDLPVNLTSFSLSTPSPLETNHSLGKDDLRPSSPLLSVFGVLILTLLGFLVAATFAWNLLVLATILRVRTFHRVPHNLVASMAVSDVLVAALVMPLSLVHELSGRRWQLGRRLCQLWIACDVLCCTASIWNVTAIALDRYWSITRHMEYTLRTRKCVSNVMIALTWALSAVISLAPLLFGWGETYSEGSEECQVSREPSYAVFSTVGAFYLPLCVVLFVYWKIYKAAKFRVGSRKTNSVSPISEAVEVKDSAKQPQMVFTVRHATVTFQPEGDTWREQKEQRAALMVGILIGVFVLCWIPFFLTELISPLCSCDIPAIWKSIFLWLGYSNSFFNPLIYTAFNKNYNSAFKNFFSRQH

[9] = target: KV channel (voltage-gated potassium channel family) (Homo sapiens, UniProt O43525+O43526+O95259+P16389+P17658+P22001+P22459+P22460+P48547+P51787+P56696+Q03721+Q09470+Q12809+Q14003+Q14721+Q16322+Q6PIU1+Q8NCM2+Q8TAE7+Q8TDN1+Q8TDN2+Q92953+Q96KK3+Q96L42+Q96PR1+Q96RP8+Q9BQ31+Q9H252+Q9H3M0+Q9NR82+Q9NS40+Q9NSA2+Q9NZV8+Q9UIX4+Q9UJ96+Q9UK17+Q9ULD8+Q9ULS6+Q9UQ05); experiment: Binding affinity to KV channel (unknown origin) assessed as specific binding at 10 uM relative to control; format: protein assay; conditions: read-out: Activity
[10] = target: 5-hydroxytryptamine receptor 6 (Homo sapiens) (UniProt P50406); experiment: Binding affinity to 5HT6 (unknown origin) assessed as specific binding at 10 uM relative to control
Sequence of 5-hydroxytryptamine receptor 6 (Homo sapiens) (P50406 whole entry): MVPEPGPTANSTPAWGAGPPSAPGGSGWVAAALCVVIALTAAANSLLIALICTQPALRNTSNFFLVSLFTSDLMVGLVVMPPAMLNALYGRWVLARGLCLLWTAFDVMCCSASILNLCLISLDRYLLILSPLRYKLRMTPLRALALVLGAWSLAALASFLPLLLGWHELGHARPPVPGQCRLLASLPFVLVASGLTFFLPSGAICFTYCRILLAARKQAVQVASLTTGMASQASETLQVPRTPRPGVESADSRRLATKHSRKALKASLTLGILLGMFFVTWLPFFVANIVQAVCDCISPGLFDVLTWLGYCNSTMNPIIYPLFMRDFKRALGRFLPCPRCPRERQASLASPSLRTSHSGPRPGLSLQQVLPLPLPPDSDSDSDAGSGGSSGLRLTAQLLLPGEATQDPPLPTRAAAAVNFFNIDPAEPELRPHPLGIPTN

[11] = target: Beta-1 adrenergic receptor (Homo sapiens) (UniProt P08588); experiment: Binding affinity to Beta1 (unknown origin) assessed as specific binding at 10 uM relative to control
[12] = target: Histone-lysine N-methyltransferase ASH1L (Homo sapiens) (UniProt Q9NR48); conditions: dose 10.0 µM
[13] = target: ATPase family AAA domain-containing protein 2 (Homo sapiens) (UniProt Q6PL18); conditions: dose 10.0 µM
[14] = target: Bromodomain adjacent to zinc finger domain protein 2A (Homo sapiens) (UniProt Q9UIF9); conditions: dose 10.0 µM
[15] = target: Bromodomain-containing protein 3 (Homo sapiens) (UniProt Q15059); conditions: dose 10.0 µM
[16] = target: Bromodomain-containing protein 7 (Homo sapiens) (UniProt Q9NPI1); conditions: dose 10.0 µM
[17] = target: Bromodomain-containing protein 9 (Homo sapiens) (UniProt Q9H8M2); conditions: dose 10.0 µM
Sequence of Bromodomain-containing protein 9 (Homo sapiens) (Q9H8M2 whole entry): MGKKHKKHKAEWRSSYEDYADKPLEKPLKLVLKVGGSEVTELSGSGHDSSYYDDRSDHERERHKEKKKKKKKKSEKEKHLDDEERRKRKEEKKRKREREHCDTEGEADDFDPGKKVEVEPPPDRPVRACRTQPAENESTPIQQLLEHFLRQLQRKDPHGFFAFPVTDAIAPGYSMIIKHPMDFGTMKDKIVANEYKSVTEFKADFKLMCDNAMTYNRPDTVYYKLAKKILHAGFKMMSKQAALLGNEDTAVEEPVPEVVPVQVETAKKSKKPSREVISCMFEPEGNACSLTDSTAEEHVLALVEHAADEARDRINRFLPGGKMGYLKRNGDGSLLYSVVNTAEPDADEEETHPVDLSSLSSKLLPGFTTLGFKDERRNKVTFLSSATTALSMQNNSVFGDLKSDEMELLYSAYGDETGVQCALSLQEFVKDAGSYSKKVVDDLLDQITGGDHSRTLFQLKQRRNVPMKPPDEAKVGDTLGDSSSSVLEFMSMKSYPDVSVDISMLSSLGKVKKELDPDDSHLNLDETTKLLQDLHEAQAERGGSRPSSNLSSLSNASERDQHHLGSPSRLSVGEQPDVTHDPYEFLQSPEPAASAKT

[18] = target: T1, Bromodomain-containing protein 1 (Homo sapiens); conditions: dose 10.0 µM
Homo sapiens [19] = species: Homo sapiens; conditions: dose 10.0 µM
[20] = target: Chromatin remodeling regulator CECR2 (Homo sapiens) (UniProt Q9BXF3); conditions: dose 10.0 µM
[21] = target: Protein polybromo-1 (Homo sapiens) (UniProt Q86U86); conditions: dose 10.0 µM
Sequence of Protein polybromo-1 (Homo sapiens) (Q86U86 whole entry): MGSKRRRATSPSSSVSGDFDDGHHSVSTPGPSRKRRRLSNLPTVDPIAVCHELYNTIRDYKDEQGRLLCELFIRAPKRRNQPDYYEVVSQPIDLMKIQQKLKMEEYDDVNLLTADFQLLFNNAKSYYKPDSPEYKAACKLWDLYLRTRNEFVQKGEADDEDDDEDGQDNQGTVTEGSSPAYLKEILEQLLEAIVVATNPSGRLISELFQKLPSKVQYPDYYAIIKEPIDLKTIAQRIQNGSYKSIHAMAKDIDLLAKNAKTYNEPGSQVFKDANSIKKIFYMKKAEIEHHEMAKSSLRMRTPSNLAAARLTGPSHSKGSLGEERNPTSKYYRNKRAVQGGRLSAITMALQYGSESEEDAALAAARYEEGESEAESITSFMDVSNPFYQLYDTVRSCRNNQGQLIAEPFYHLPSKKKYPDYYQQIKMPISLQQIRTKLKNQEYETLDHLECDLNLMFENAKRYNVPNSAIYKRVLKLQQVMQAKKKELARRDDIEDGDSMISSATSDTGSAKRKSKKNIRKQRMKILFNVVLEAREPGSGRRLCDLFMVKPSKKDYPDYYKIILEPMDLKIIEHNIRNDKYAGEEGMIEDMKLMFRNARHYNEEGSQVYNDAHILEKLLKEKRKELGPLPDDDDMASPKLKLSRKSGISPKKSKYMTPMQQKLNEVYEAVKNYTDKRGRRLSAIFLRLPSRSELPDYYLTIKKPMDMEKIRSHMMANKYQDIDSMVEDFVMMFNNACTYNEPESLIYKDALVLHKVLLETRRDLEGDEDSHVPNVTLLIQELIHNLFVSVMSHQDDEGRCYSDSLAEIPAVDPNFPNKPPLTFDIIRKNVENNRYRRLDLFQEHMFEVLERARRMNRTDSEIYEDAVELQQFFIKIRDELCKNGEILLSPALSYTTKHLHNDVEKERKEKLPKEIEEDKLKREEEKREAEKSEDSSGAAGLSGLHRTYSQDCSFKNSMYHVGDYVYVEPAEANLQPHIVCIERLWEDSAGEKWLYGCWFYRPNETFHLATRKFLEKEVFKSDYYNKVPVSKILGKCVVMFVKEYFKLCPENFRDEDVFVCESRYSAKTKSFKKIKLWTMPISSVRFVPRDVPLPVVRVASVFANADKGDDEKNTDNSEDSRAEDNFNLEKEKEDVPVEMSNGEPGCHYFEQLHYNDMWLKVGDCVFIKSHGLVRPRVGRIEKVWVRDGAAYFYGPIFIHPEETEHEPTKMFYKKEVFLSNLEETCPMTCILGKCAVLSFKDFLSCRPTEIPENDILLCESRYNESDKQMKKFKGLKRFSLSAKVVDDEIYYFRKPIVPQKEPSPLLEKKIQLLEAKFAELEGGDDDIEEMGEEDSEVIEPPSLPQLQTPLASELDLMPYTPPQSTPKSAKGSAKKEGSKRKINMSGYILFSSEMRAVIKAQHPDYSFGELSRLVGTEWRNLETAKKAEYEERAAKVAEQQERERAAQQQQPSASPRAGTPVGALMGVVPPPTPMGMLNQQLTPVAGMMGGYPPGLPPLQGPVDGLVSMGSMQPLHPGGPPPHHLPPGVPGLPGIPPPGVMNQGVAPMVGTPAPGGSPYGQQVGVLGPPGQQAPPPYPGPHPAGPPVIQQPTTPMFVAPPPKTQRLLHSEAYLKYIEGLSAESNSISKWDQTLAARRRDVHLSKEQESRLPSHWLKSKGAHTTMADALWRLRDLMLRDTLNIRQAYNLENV

[22] = target: Protein polybromo-1 (Homo sapiens) (UniProt Q86U86); conditions: dose 10.0 µM; remark: listed apart in the source
[23] = target: Protein polybromo-1 (Homo sapiens) (UniProt Q86U86); conditions: dose 10.0 µM; remark: listed apart in the source
[24] = target: Histone acetyltransferase KAT2B (Homo sapiens) (UniProt Q92831); conditions: dose 10.0 µM
Homo sapiens [25] = species: Homo sapiens; conditions: dose 10.0 µM; remark: listed apart in the source
Homo sapiens [26] = species: Homo sapiens; conditions: dose 10.0 µM; remark: listed apart in the source
[27] = target: Transcription intermediary factor 1-alpha (Homo sapiens) (UniProt O15164); conditions: dose 10.0 µM
Sequence of Transcription intermediary factor 1-alpha (Homo sapiens) (O15164 whole entry): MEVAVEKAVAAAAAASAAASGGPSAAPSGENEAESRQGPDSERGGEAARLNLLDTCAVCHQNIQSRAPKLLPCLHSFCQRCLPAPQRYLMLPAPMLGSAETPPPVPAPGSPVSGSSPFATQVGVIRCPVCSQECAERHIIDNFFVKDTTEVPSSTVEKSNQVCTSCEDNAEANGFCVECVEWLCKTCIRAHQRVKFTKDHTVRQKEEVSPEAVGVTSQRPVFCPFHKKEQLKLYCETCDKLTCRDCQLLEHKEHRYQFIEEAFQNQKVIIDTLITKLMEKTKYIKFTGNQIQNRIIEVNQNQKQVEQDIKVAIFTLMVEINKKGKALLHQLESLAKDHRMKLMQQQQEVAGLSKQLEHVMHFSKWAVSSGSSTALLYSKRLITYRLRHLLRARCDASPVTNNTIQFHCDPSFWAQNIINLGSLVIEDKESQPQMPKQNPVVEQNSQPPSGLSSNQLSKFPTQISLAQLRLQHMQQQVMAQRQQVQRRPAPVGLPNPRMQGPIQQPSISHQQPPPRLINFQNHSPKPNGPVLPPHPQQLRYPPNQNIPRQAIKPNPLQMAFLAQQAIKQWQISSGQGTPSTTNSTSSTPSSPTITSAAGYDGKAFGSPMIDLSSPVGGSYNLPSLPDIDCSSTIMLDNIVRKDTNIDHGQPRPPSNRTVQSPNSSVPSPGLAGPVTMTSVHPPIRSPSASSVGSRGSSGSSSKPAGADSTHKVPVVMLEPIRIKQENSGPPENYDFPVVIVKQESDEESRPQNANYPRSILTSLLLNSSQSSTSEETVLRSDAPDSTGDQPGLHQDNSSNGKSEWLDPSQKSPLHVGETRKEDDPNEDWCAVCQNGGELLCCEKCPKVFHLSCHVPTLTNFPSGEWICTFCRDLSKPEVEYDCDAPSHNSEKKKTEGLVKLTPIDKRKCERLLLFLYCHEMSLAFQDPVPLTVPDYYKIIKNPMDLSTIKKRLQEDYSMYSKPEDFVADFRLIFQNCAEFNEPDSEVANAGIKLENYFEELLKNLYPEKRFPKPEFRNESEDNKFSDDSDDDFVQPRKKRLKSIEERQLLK

## COc1cc2c(cc1NS(=O)(=O)c1ccc(Br)cc1C)n(C)c(=O)n2C
[1]
  Ka: 1.98 10^6 M^-1
[2]
  deltaH: -6.93 kcal/mol
[3]
  deltaS: -0.004 kcal/mol/K
[4]
  deltaS: 0.001 kcal/mol/K
[5]
  deltaG: -8.3 kcal/mol
[6]
  deltaG: -7.13 kcal/mol
[7]
  inhibition: 11%
[8]
  inhibition: 22%
[9]
  activity at 10 µM: 124%
[10]
  Activity: 49.9%
[11]
  Activity: 92.6%
[12]
  ΔTm: 0.3 °C
[13]
  ΔTm: 0.14 °C
[14]
  ΔTm: 0.2 °C
[15]
  ΔTm: 1.4 °C
[16]
  ΔTm: 1.2 °C
[17]
  ΔTm: 1 °C
[18]
  ΔTm: 3.1 °C
Homo sapiens [19]
  ΔTm: 3.3 °C
[20]
  ΔTm: 0.1 °C
[21]
  ΔTm: 0.4 °C
[22]
  ΔTm: 0.2 °C
[23]
  ΔTm: 0.8 °C
[24]
  ΔTm: 0.3 °C
Homo sapiens [25]
  ΔTm: -0.4 °C
Homo sapiens [26]
  ΔTm: 0.2 °C
[27]
  ΔTm: 1.6 °C
